The target in this experiment is T1, human IRAK-4 (Homo sapiens, UniProt Q9NWZ3).
T1 construct: purchased Carna Biosciences 09 145
T1 sequence (Q9NWZ3 1-460): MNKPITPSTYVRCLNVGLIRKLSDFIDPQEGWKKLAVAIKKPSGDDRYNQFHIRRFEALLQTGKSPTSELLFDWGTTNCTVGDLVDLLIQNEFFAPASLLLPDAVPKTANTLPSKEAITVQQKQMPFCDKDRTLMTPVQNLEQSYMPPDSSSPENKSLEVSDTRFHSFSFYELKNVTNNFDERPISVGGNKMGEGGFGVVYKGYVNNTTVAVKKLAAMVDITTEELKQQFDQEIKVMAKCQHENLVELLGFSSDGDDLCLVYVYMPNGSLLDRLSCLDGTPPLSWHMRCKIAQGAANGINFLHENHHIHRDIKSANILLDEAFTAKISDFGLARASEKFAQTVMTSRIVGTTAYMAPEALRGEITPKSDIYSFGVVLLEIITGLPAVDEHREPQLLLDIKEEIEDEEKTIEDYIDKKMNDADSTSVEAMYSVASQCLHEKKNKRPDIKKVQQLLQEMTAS
The experiment can be described thus: Phosphorylation IC50 determination for human IRAK-4 (ADP-Glo kinase assay). In kind it is biochemical. The following applies: RIP140 substrate, Km ATP, read-out: IRAK4 IC50. The procedure:
3.1. Phosphorylation IC50 Determination for Human IRAK-4
The phosphorylation of the substrate RIP140 (SEQ IDi1) by IRAK4 at Km ATP was detected with the ADP-Glo Kinase Assay (Promega, Cat #V9103), a luminescent kinase assay which measures the ADP formed from a kinase reaction. (Zegzouti et al., 2009) In a second step the kinase reaction is terminated and all the remaining ATP was depleted. In a final step the ADP was converted into ATP and this newly synthesized ATP was measured by using a luciferase/luciferin reaction with a luminescent reader. The luminescent signal positively correlated with kinase activity, in particular kinase inhibition giving a decrease of the luminescent signal.
For the semi-automated assay, the positive control (100% inhibition) was prepared by diluting 10 mM staurosporine stock mixture (20 μL) in water (3.8 mL) and DMSO (180 μL), thus resulting in a […] staurosporine solution at 1% DMSO (final concentration after further dilution in the kinase reaction).
For the automated assay, no pre-dilution of the 10 mM staurosporine stock was made. 10 mM staurosporine was spotted directly in the assay plate using acoustic dispensing and complemented with DMSO to result in a similar final concentration as mentioned above.
For the semi-automated assay, the negative control (0% inhibition) was prepared by mixing water (3.8 mL) and DMSO (200 μL) resulting in a final concentration of 1% DMSO after further dilution in the kinase reaction. For the automated assay no pre-dilution of DMSO was done. 100% DMSO was spotted directly on the assay plate.
The assay buffer solution was prepared at a concentration corresponding to 5 fold the final (most diluted) assay concentration by mixing a solution of 125 mM TRIS pH 7.5+0.05% Triton X-100+2.5 mM EGTA (5.27 mL) with 1M MgCl2 (72 μL), 1M DTT (57.6 μL), and 200 mM MnCl2 (360 μL).
For example, for the semi-automated method, the enzyme-substrate mixture was prepared by mixing water (3999 μL), assay buffer solution (1380 μL), 1 mM RIP140 (138 μL—SEQ ID1), and 200 ng/mL IRAK 4 (3.45 μL Carna Biosciences, 09 145).
For semi-automated method, the ATP mixture was prepared at a concentration corresponding to 2.5 fold the final (most diluted) assay concentration of the semi-automated method and 1.5 fold the final (most diluted) assay concentration of the automated method. For example, for the semi-automated method, the ATP mixture was prepared by mixing water (4126 μL), assay buffer solution (1380 μL), and 10 mM ATP (13.80 μL).
The assay was performed either in a semi-automated or fully automated manner. The assay volume and the incubation time of the ADP detection were different accordingly the method used.
3.1.3.1. Semi-Automated Assay
The compounds were prepared as a serial dilution of 10 point dose responses with 1/5 dilution steps in 100% DMSO starting from 2 mM highest concentration, diluted 1/20 in water. 1 μL was transferred dry to the assay plates.
On each assay plate 32 wells of each control (positive & negative) were added, followed by 2 μL enzyme-substrate mixture.
The reaction was started by adding 2 μL diluted ATP (final concentration Km ATP) on the assay plates. Plates were centrifuged for a few seconds at 1000 rpm followed by an incubation at r.t. for 120 min.
The reactions were stopped and the unconsumed ATP was depleted by adding 5 μL ADP-glo Reagent (Promega, Cat #V9103) to the reaction. The plates were quickly centrifuged at 1000 rpm and incubated at r.t. for 40 min corresponding to full ATP depletion.
The ADP was converted back to ATP and luciferase and luciferin were introduced to detect ATP by adding 10 μL kinase detection reagent (Promega, Cat #V9103) to the reaction. The plates were centrifuged for a few seconds at 1000 rpm and incubated at r.t. for a further 30 min.
Luminescent read out was performed on an Envision luminescent reader (Perkin Elmer). […]
Regarding `COc1cn2nc(CC(F)C(C)(C)O)cc2cc1NC(=O)c1cccn(C2CC2)c1=O` (single isomer, unassigned; enantiomer a) [Compound 25, 1-cyclopropyl-N-[2-(2-fluoro-3-hydroxy-3-methyl-butyl)-6-methoxy-pyrazolo[1,5-a]pyridin-5-yl]-2-oxo-pyridine-3-carboxamide Enantiomer A], the IC50 lay in the range of 0.1 to 5 nM.

For the compound `COc1cn2nc(CC(F)C(C)(C)O)cc2cc1NC(=O)c1cccn(C2CC2)c1=O` (single isomer, unassigned; enantiomer b) [Compound 26, 1-cyclopropyl-N-[2-(2-fluoro-3-hydroxy-3-methyl-butyl)-6-methoxy-pyrazolo[1,5-a]pyridin-5-yl]-2-oxo-pyridine-3-carboxamide Enantiomer B], the IC50 was in the range of 10 to 50 nM.

Regarding `COc1cn2nc(CCC(C)(C)O)cc2cc1NC(=O)c1cccn(C2CC2)c1=O` [Compound 1, 1-cyclopropyl-N-[2-(3-hydroxy-3-methylbutyl)-6-methoxypyrazolo[1,5-a]pyridin-5-yl]-2-oxopyridine-3-carboxamide], the IC50 fell in the range of 0.1 to 5 nM.

`COc1cn2nc(CCC(C)(C)O)cc2cc1NC(=O)c1cccn(C)c1=O` [Compound 2, N-[2-(3-hydroxy-3-methylbutyl)-6-methoxypyrazolo[1,5-a]pyridin-5-yl]-1-methyl-2-oxopyridine-3-carboxamide]: the IC50 was 0.1 to 5 nM.

On to `COc1cn2nc(CCC(C)(C)O)cc2cc1NC(=O)c1cccc(C(F)(F)F)n1` [Compound 3, N-[2-(3-hydroxy-3-methylbutyl)-6-methoxypyrazolo[1,5-a]pyridin-5-yl]-6-(trifluoromethyl)pyridine-2-carboxamide], for which the IC50 lay in the range of 0.1 to 5 nM.

For `CC(C)(O)CCc1cc2cc(NC(=O)c3cccc(C(F)(F)F)n3)c(C(N)=O)cn2n1` [Compound 4, 2-(3-hydroxy-3-methylbutyl)-5-[[6-(trifluoromethyl)pyridine-2-carbonyl]amino]pyrazolo[1,5-a]pyridine-6-carboxamide], the IC50 was 0.1 to 5 nM.

Turning to `CNC(=O)c1cn2nc(CCC(C)(C)O)cc2cc1NC(=O)c1cccc(C(F)(F)F)n1` [Compound 5, 2-(3-hydroxy-3-methylbutyl)-N-methyl-5-[[6-(trifluoromethyl)pyridine-2-carbonyl]amino]pyrazolo[1,5-a]pyridine-6-carboxamide], the IC50 is 0.1 to 5 nM.

`COc1cn2nc(CCC(C)(C)O)cc2cc1NC(=O)c1cccn(C(F)F)c1=O` [Compound 7, 1-(difluoromethyl)-N-[2-(3-hydroxy-3-methyl-butyl)-6-methoxy-pyrazolo[1,5-a]pyridin-5-yl]-2-oxo-pyridine-3-carboxamide]: the IC50 was in the range of 5 to 10 nM.

Turning to `CNC(=O)c1cn2nc(C3CCCS(=O)(=O)C3)cc2cc1NC(=O)c1cccc(C(F)(F)F)n1` (stereo not drawn) [Compound 8, 2-(1,1-dioxothian-3-yl)-N-methyl-5-[[6-(trifluoromethyl)pyridine-2-carbonyl]amino]pyrazolo[1,5-a]pyridine-6-carboxamide], the IC50 was 0.1 to 5 nM.

Consider `CCOc1cn2nc(CCC(C)(C)O)cc2cc1NC(=O)c1cccn(C(F)F)c1=O` [Compound 9, 1-(difluoromethyl)-N-[6-ethoxy-2-(3-hydroxy-3-methyl-butyl)pyrazolo[1,5-a]pyridin-5-yl]-2-oxo-pyridine-3-carboxamide], for which the IC50 lay in the range of 5 to 10 nM.

`CNC(=O)c1cn2nc(C3CCN(C)CC3)cc2cc1NC(=O)c1cccc(C(F)(F)F)n1` [Compound 12, N-methyl-2-(1-methyl-4-piperidyl)-5-[[6-(trifluoromethyl)pyridine-2-carbonyl]amino]pyrazolo[1,5-a]pyridine-6-carboxamide]: the IC50 fell in the range of 0.1 to 5 nM.

With `COc1c(NC(=O)c2cccn(C3CC3)c2=O)cc2cc(CCC(C)(C)O)nn2c1C` [Compound 13, 1-cyclopropyl-N-[2-(3-hydroxy-3-methyl-butyl)-6-methoxy-7-methyl-pyrazolo[1,5-a]pyridin-5-yl]-2-oxo-pyridine-3-carboxamide], the IC50 fell in the range of 10 to 50 nM.

Turning to `CNC(=O)c1cn2nc(C3CCOCC3)cc2cc1NC(=O)c1cccc(C(F)F)n1` [Compound 15, 5-[[6-(difluoromethyl)pyridine-2-carbonyl]amino]-N-methyl-2-tetrahydropyran-4-yl-pyrazolo[1,5-a]pyridine-6-carboxamide], the IC50 was 0.1 to 5 nM.

With `NC(=O)c1cn2nc(C3CCOCC3)cc2cc1NC(=O)c1cccc(C(F)F)n1` [Compound 16, 5-[[6-(difluoromethyl)pyridine-2-carbonyl]amino]-2-tetrahydropyran-4-yl-pyrazolo[1,5-a]pyridine-6-carboxamide], the IC50 was 0.1 to 5 nM.

`CCOc1cn2nc(CCC(C)(C)O)cc2cc1NC(=O)c1cccn(C2CC2)c1=O` [Compound 17, 1-cyclopropyl-N-[6-ethoxy-2-(3-hydroxy-3-methyl-butyl)pyrazolo[1,5-a]pyridin-5-yl]-2-oxo-pyridine-3-carboxamide]: the IC50 fell in the range of 0.1 to 5 nM.

In the case of `CCOc1cn2nc(CCC(C)(C)O)cc2cc1NC(=O)c1cccn(C)c1=O` [Compound 18, N-[6-ethoxy-2-(3-hydroxy-3-methyl-butyl)pyrazolo[1,5-a]pyridin-5-yl]-1-methyl-2-oxo-pyridine-3-carboxamide], the IC50 fell in the range of 0.1 to 5 nM.

Take `CNC(=O)c1cn2nc(CCC(C)(C)O)cc2cc1NC(=O)c1cccc(C(F)F)n1` [Compound 19, 5-[[6-(difluoromethyl)pyridine-2-carbonyl]amino]-2-(3-hydroxy-3-methyl-butyl)-N-methyl-pyrazolo[1,5-a]pyridine-6-carboxamide]: the IC50 is 0.1 to 5 nM.

Regarding `CC(C)(O)CCc1cc2cc(NC(=O)c3cccc(C(F)F)n3)c(C(N)=O)cn2n1` [Compound 20, 5-[[6-(difluoromethyl)pyridine-2-carbonyl]amino]-2-(3-hydroxy-3-methyl-butyl)pyrazolo[1,5-a]pyridine-6-carboxamide], the IC50 fell in the range of 0.1 to 5 nM.

For `COc1cn2nc(CCC(C)(C)O)cc2cc1NC(=O)c1cccn(C2CCC2)c1=O` [Compound 21, 1-cyclobutyl-N-[2-(3-hydroxy-3-methyl-butyl)-6-methoxy-pyrazolo[1,5-a]pyridin-5-yl]-2-oxo-pyridine-3-carboxamide], the IC50 lay within 0.1 to 5 nM.

Take `COc1cn2nc(CC(F)C(C)(C)O)cc2cc1NC(=O)c1cccn(C2CC2)c1=O` (stereo not drawn) [Compound 22, 1-cyclopropyl-N-[2-(2-fluoro-3-hydroxy-3-methyl-butyl)-6-methoxy-pyrazolo[1,5-a]pyridin-5-yl]-2-oxo-pyridine-3-carboxamide]: the IC50 is 0.1 to 5 nM.

`[2H]C([2H])([2H])C(O)(CCc1cc2cc(NC(=O)c3cccn(C4CC4)c3=O)c(OC)cn2n1)C([2H])([2H])[2H]` [Compound 23, 1-cyclopropyl-N-[6-methoxy-2-[4,4,4-trideuterio-3-hydroxy-3-(trideuteriomethyl)butyl]pyrazolo[1,5-a]pyridin-5-yl]-2-oxo-pyridine-3-carboxamide]: the IC50 was in the range of 0.1 to 5 nM.

By IC50 is commonly meant the concentration that inhibits the measured activity by half.

Values taken from patent US20220218679A1, “NOVEL COMPOUNDS AND PHARMACEUTICAL COMPOSITIONS THEREOF FOR THE TREATMENT OF INFLAMMATORY DISORDERS” (Galapagos NV, priority 2019, published 2022).
